From paper PMC3181484 (The EMBO Journal, 2011)

Columns and labels:
TRESK = molecular target: T1, TRESK (Homo sapiens, UniProt Q7Z418); experiment: QA ion block of TRESK currents, giant inside-out patches from Xenopus oocytes; assay type: cell-based
T1 sequence (Q7Z418 1-384): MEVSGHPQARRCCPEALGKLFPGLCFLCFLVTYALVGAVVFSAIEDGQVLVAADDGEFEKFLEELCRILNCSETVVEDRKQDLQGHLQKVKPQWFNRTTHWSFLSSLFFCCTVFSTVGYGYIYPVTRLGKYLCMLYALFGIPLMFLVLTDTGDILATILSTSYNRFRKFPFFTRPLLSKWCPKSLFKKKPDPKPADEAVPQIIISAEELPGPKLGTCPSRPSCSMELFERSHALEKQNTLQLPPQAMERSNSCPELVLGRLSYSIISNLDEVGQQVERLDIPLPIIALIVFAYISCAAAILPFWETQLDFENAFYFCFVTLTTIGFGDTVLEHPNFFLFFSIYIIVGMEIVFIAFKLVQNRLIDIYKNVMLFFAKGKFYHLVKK

TREK-1 = molecular target: T2, TREK-1 (Rattus norvegicus, UniProt Q920B6); assay type: cell-based
T2 sequence (Q920B6 1-426): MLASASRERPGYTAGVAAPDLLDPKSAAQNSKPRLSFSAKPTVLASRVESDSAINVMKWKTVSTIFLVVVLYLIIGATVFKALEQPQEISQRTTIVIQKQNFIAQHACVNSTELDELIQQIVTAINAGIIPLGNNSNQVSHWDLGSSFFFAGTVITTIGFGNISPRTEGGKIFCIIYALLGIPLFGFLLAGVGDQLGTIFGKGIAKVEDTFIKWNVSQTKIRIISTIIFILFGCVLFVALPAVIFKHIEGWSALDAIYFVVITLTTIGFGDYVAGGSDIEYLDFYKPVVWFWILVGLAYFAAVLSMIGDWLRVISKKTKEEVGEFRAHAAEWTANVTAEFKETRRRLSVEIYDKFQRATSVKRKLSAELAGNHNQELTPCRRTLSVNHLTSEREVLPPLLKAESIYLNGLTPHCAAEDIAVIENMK

For CCCC[N+](CCCC)(CCCC)CCCC [TButA, Tetrabutylammonium bromide], the IC50 (TRESK) was 7 ± 1 µM, the “recovery from inhibition (kinetics)” value (TRESK; TRESK, 5 μM, −80 mV) was “fairly rapid” and the inhibition at 5000 µM (TREK-1; read-out: inhibition of TREK-1 current) was 60%.

CC[N+](CC)(CC)CC [TEA, Tetraethylammonium chloride] showed an IC50 (TRESK) of 800 ± 100 µM and an IC50 (TREK-1) of ~60000 µM.
